Experimental data taken from US20200407398A1, “Short Proline-Rich Lipopeptide Potentiates Minocycline and Rifampicin Against Multidrug-and Extensively Drug-Resistant Pseudomonas Aeruginosa” (priority 2018, published 2020).

Experiments:
Experiment in all cases: microbe, parasite or virus in culture
[1] = tested on: P. aeruginosa 262-101856 (MDR/XDR); conditions: Pseudomonas aeruginosa, read-out: MIC (agent alone)
Procedure: (§1) We evaluated the activity of SPRLPs in combination with fifteen clinically-used antibiotics against P. aeruginosa. Antibiotics tested included fluoroquinolones (moxifloxacin, ciprofloxacin and levofloxacin), aminoglycosides (gentamicin, tobramycin and amikacin), cephalosporins (ceftazidime and cefotaxime), carbapenems (meropenem and doripenem), aztreonam, rifampicin, minocycline, colistin and fosfomycin. The SPRLPs were screened initially at a fixed concentration of 8 μg/mL (5 μM) in combination with antibiotics against wild-type P. aeruginosa PAO1. We assessed potentiation by at least a four-fold absolute MIC reduction of the antibiotic, after which synergism was further validated by a conventional checkerboard assay. A fractional inhibitory concentration (FIC) index of ≤0.5, 0.5<x≤4 or >4 was interpreted as synergistic, indifferent or antagonistic interaction, respectively (31). FIC index was obtained by adding the FIC values of the antibiotic and the SPRLP adjuvant. FIC of antibiotics was calculated by dividing the MIC of the antibiotic in the presence of the adjuvant by the MIC of the antibiotic alone. Similarly, the FIC of adjuvant was calculated via dividing the MIC of the adjuvant in the presence of the antibiotic by the MIC of the adjuvant alone.
(§2) Isolates used in this study were either obtained from the American Type Culture Collection (ATCC), the Canadian National Intensive Care Unit (CAN-ICU) surveillance study (27) or the Canadian Ward Surveillance (CANWARD) study (28). Clinical isolates belonging to the CAN-ICU and CANWARD studies were recovered from patients suffering a presumed infectious disease entering or admitted in a participating medical center across Canada during the time of study. MDR P. aeruginosa strains in this study refer to those that are resistant to aminoglycosides, fluoroquinolones, cephalosporins, and carbapenems while XDR strains are those that are resistant to aminoglycosides, fluoroquinolones, cephalosporins, carbapenems, aztreonam and penicillin+β-lactamase inhibitor combination (39, 40).
(§3) Microbroth dilution susceptibility test following the Clinical and Laboratory Standards Institute (CLSI) guidelines (32) was performed to assess the in vitro antibacterial activity of SPRLPs. Overnight grown bacterial cultures were diluted in saline to achieve a 0.5 McFarland turbidity, followed by 1:50 dilution in Mueller-Hinton broth (MHB) for inoculation to a final concentration of 5×10^5 colony forming units/mL. The assay was done on a 96-well plate to which the agents of interest were 2-fold serially diluted in MHB and incubated with equal volumes of inoculum at 37° C. for 18 hours. MIC was determined as the lowest concentration to inhibit visible bacterial growth in form of turbidity, which was confirmed using EMax Plus microplate reader (Molecular Devices, USA) at a wavelength of 590 nm. The well containing MHB broth with or without bacterial cells was used as positive or negative control, respectively.
(§4) The assay was performed on a 96-well plate, to which the agents of interest was 2-fold serially diluted in working MHB. Prior to serial dilution, SPRLP was added to the working MHB media so that a fixed final concentration of 8 μg/mL (5 μM) SPRLP per well was achieved. To ensure that the assay was working, the MIC determination test of the studied antibiotic (without SPRLP) was included on the same plate. Similar MIC results between the assay comparator and an independent MIC determination test (on a different plate) ensured validity of the synergy test. Overnight grown bacterial cultures were diluted in saline to 0.5 McFarland turbidity, followed by 1:50 dilution in MHB (without SPRLP) and inoculation into each well to a final concentration of approximately 5×10^5 colony forming units/mL. Wells containing only MHB (without SPRLP) with or without bacterial cells were used as positive or negative control, respectively.

[2] = tested on: P. aeruginosa 264-104354 (MDR/XDR); conditions: Pseudomonas aeruginosa, read-out: MIC (agent alone)
Procedure: as §1, §2, §3, §4

[3] = tested on: P. aeruginosa 91433 (colistin-resistant, MDR/XDR); conditions: Pseudomonas aeruginosa, read-out: MIC (agent alone)
Procedure: as §1, §2, §3, §4

[4] = tested on: P. aeruginosa 101885 (MDR/XDR); conditions: Pseudomonas aeruginosa, read-out: MIC (agent alone)
Procedure: as §1, §2, §3, §4

[5] = tested on: P. aeruginosa 101243 (colistin-resistant, MDR/XDR); conditions: antibiotic or lipopeptide alone; for MIC: Pseudomonas aeruginosa, read-out: MIC (agent alone), P. aeruginosa 101243 (colistin-resistant)
Procedure: as §1, §2, §3, §4

[6] = tested on: P. aeruginosa 100036 (MDR/XDR); conditions: Pseudomonas aeruginosa, read-out: MIC (agent alone)
Procedure: as §1, §2, §3, §4

[7] = tested on: P. aeruginosa 260-97103 (MDR/XDR); conditions: Pseudomonas aeruginosa, read-out: MIC (agent alone)
Procedure: as §1, §2, §3, §4

[8] = tested on: P. aeruginosa 259-96918 (MDR/XDR); conditions: Pseudomonas aeruginosa, read-out: MIC (agent alone)
Procedure: as §1, §2, §3, §4

[9] = tested on: P. aeruginosa PAO1 (wild-type); conditions: Pseudomonas aeruginosa, PAO1, read-out: MIC (agent alone)
Procedure: as §1, §3
as §4, with “respectively. The plate was then incubated at 37° C. for 18 hours and examined for visible turbidity, to which was confirmed using EMax Plus microplate reader (Molecular Devices, USA) at a wavelength of 590 nm. A 4-fold or more MIC reduction of antibiotic in the presence of 8 μg/mL (5 μM) SPRLP denoted a positive synergy result and was further validated by a checkerboard assay.” for “respectively.”
The assay was done on a 96-well plate as previously described (40, 41). The agent of interest was 2-fold serially diluted along the x-axis, while the adjuvant was 2-fold serially diluted along the y-axis to create a matrix in which each well consist of a combination of both at different concentrations.

CN(C)c1ccc(O)c2c1C[C@H]1C[C@H]3[C@H](N(C)C)C(O)=C(C(N)=O)C(=O)[C@@]3(O)C(O)=C1C2=O [minocycline]
MIC [1]: 64 µg/mL | MIC [2]: 32 µg/mL | MIC [3]: 32 µg/mL | MIC [4]: 16 µg/mL | MIC (agent alone) ([5]; P. aeruginosa 101243 (colistin-resistant)): 4 µg/mL | MIC [5]: 2 µg/mL | MIC [6]: 16 µg/mL | MIC [7]: 16 µg/mL | MIC [8]: 16 µg/mL | MIC [9]: 8 µg/mL

CO[C@H]1/C=C/O[C@@]2(C)Oc3c(C)c(O)c4c(O)c(c(/C=N/N5CCN(C)CC5)c(O)c4c3C2=O)NC(=O)/C(C)=C\C=C\[C@H](C)[C@H](O)[C@@H](C)[C@@H](O)[C@@H](C)[C@H](OC(C)=O)[C@@H]1C [rifampicin]
MIC [1]: 512 µg/mL | MIC [2]: 8 µg/mL | MIC [3]: 16 µg/mL | MIC [4]: 16 µg/mL | MIC [5]: 4 µg/mL | MIC [6]: 16 µg/mL | MIC [7]: 16 µg/mL | MIC [8]: 16 µg/mL | MIC [9]: 8 µg/mL
